ChEMBL document CHEMBL5303304, “EUbOPEN Chemogenomics Library - IncuCyte” (2023)

What was measured:
Format in all cases: toxicity, cell-based
[1] = test system: Fibroblast; test: Incucyte cell viability with human fibroblast; details: 10 µM, compound concentration 10 uM
[2] = test system: HEK-293T; test: Incucyte cell viability with HEK293T; details: human, 10 µM, compound concentration 10 uM
[3] = test system: U2OS; test: Incucyte cell viability with U2OS; details: human, 10 µM, compound concentration 10 uM
Further: unitless GR value; below 1 slowed growth and below 0 cell loss.

SMILES: Cc1ccc(NC(=O)c2ccc(CN3CC[C@H](N(C)C)C3)c(C(F)(F)F)c2)cc1Nc1nccc(-c2cncnc2)n1 [BAFETINIB]
- Growth Rate ([1]; 0 h, replicate number 1): -1
- Growth Rate ([1]; 0 h, replicate number 2): 0.2
- Growth Rate ([1]; 6 h, replicate number 1): -0.23
- Growth Rate ([1]; 6 h, replicate number 2): -0.55
- Growth Rate ([1]; 12 h, replicate number 1): 0.05
- Growth Rate ([1]; 12 h, replicate number 2): 0.02
- Growth Rate ([1]; 18 h, replicate number 1): 0.01
- Growth Rate ([1]; 18 h, replicate number 2): 0.39
- Growth Rate ([1]; 24 h, replicate number 1): 0.14
- Growth Rate ([1]; 24 h, replicate number 2): 0.54
- Growth Rate ([2]; 6 h, replicate number 1): 0.57
- Growth Rate ([2]; 12 h, replicate number 1): 0.67
- Growth Rate ([2]; 12 h, replicate number 2): 0.68
- Growth Rate ([2]; 18 h, replicate number 1): 0.96
- Growth Rate ([2]; 18 h, replicate number 2): 0.99
- Growth Rate ([2]; 24 h, replicate number 1): 0.97

SMILES: O=C(Nc1ccc(C(O)(C(F)(F)F)C(F)(F)F)cc1)c1ccc(C(F)(F)F)cc1
- Growth Rate ([1]; 6 h, replicate number 1): 0.78
- Growth Rate ([1]; 6 h, replicate number 2): -0.08
- Growth Rate ([1]; 12 h, replicate number 1): 0.64
- Growth Rate ([1]; 12 h, replicate number 2): 0.22
- Growth Rate ([1]; 18 h, replicate number 1): 0.52
- Growth Rate ([1]; 18 h, replicate number 2): 0.11
- Growth Rate ([1]; 24 h, replicate number 1): 0.47
- Growth Rate ([1]; 24 h, replicate number 2): 0.07
- Growth Rate ([2]; 0 h, replicate number 2): -0.33
- Growth Rate ([2]; 6 h, replicate number 1): -0.31
- Growth Rate ([2]; 6 h, replicate number 2): 0.09
- Growth Rate ([2]; 12 h, replicate number 1): -0.13
- Growth Rate ([2]; 12 h, replicate number 2): 0.2
- Growth Rate ([2]; 18 h, replicate number 1): 0.04
- Growth Rate ([2]; 18 h, replicate number 2): 0.18
- Growth Rate ([2]; 24 h, replicate number 1): 0.05
- Growth Rate ([2]; 24 h, replicate number 2): 0.15

SMILES: Cc1ncsc1-c1ccc(CNC(=O)[C@@H]2C[C@@H](O)CN2C(=O)[C@@H](NC(=O)C2(F)CC2)C(C)(C)C)c(OCCOc2ccc(CN3CCN(c4cc(-c5ccccc5O)nnc4N)CC3)cc2)c1
- Growth Rate ([1]; 0 h, replicate number 2): -1
- Growth Rate ([2]; 0 h, replicate number 1): -1

SMILES: CCN(CC)C(=O)C1CN2CCc3cc(OC)c(OC)cc3C2CC1OC(C)=O (stereo not given) [BENZQUINAMIDE]
- Growth Rate ([1]; 6 h, replicate number 2): -0.43
- Growth Rate ([1]; 12 h, replicate number 2): 1
- Growth Rate ([1]; 18 h, replicate number 2): 0.6
- Growth Rate ([1]; 24 h, replicate number 2): 0.97
- Growth Rate ([2]; 0 h, replicate number 1): 0.39
- Growth Rate ([2]; 6 h, replicate number 2): 0.7
- Growth Rate ([2]; 12 h, replicate number 2): 0.59
- Growth Rate ([2]; 18 h, replicate number 2): 0.61
- Growth Rate ([2]; 24 h, replicate number 2): 0.87

SMILES: COc1cc2nc([C@@H]3CCCS(=O)(=O)C3)n(C)c2cc1NC(=O)c1cccc(C(C)(F)F)n1
- Growth Rate ([1]; 0 h, replicate number 2): -0.81
- Growth Rate ([2]; 0 h, replicate number 1): -0.79
- Growth Rate ([2]; 0 h, replicate number 2): -0.88

SMILES: COc1cc(-c2cncc(-c3ccc(N4CCN(C(C)C)CC4)cc3)c2C)cc(F)c1C(N)=O
- Growth Rate ([1]; 0 h, replicate number 2): -0.84
- Growth Rate ([2]; 0 h, replicate number 1): -0.67

SMILES: N=C(N)NCCC[C@H](NC(=O)CC1(CC(=O)N2CCN(C(c3ccccc3)c3ccccc3)CC2)CCCC1)C(=O)NCc1ccccc1.O=C(O)C(F)(F)F.O=C(O)C(F)(F)F
- Growth Rate ([1]; 0 h, replicate number 2): -0.98
- Growth Rate ([1]; 6 h, replicate number 1): 0.88
- Growth Rate ([1]; 12 h, replicate number 1): 0.74
- Growth Rate ([1]; 18 h, replicate number 1): 0.47
- Growth Rate ([1]; 18 h, replicate number 2): 0.92
- Growth Rate ([1]; 24 h, replicate number 1): 0.8
- Growth Rate ([1]; 24 h, replicate number 2): 0.64
- Growth Rate ([2]; 0 h, replicate number 1): 0.71
- Growth Rate ([2]; 6 h, replicate number 1): 0.7
- Growth Rate ([2]; 6 h, replicate number 2): 0.95
- Growth Rate ([2]; 12 h, replicate number 1): 0.89

SMILES: CC(C)(O)c1cnc(N2C[C@@]3(CCC[C@](C)(Cn4cnc5ccc(C#N)cc54)C3)OC2=O)cn1 [GSK2798745]
- Growth Rate ([1]; 0 h, replicate number 1): 0.24
- Growth Rate ([1]; 6 h, replicate number 2): -1
- Growth Rate ([1]; 12 h, replicate number 2): -0.2
- Growth Rate ([1]; 18 h, replicate number 1): -0.39
- Growth Rate ([1]; 18 h, replicate number 2): 0.4
- Growth Rate ([1]; 24 h, replicate number 2): 0.36
- Growth Rate ([2]; 6 h, replicate number 1): -0.31
- Growth Rate ([2]; 6 h, replicate number 2): 0.2
- Growth Rate ([2]; 12 h, replicate number 1): 0.38
- Growth Rate ([2]; 12 h, replicate number 2): 0.41
- Growth Rate ([2]; 18 h, replicate number 1): 0.47
- Growth Rate ([2]; 18 h, replicate number 2): 0.43
- Growth Rate ([2]; 24 h, replicate number 1): 0.49
- Growth Rate ([2]; 24 h, replicate number 2): 0.45

SMILES: Cc1cccc(-c2[nH]c(CNc3ccccc3F)nc2-c2ccc3ncnn3c2)n1 [VACTOSERTIB]
- Growth Rate ([1]; 0 h, replicate number 2): -0.26
- Growth Rate ([1]; 18 h, replicate number 1): 0.97
- Growth Rate ([2]; 0 h, replicate number 1): 0.84
- Growth Rate ([2]; 0 h, replicate number 2): -0.43
- Growth Rate ([2]; 6 h, replicate number 1): 0.95
- Growth Rate ([2]; 6 h, replicate number 2): 0.58

SMILES: CN(C)C(=O)Cn1cc(-c2nc(C3(c4ccc(-c5cnc(N)nc5)cc4)CC3)no2)cn1 [BI 0153]
- Growth Rate ([1]; 0 h, replicate number 1): -1
- Growth Rate ([1]; 0 h, replicate number 2): -0.89
- Growth Rate ([1]; 6 h, replicate number 1): 0.57
- Growth Rate ([1]; 6 h, replicate number 2): -0.35
- Growth Rate ([1]; 12 h, replicate number 2): 0.4
- Growth Rate ([1]; 18 h, replicate number 1): 0.91
- Growth Rate ([1]; 18 h, replicate number 2): 0.6
- Growth Rate ([1]; 24 h, replicate number 1): 0.73
- Growth Rate ([1]; 24 h, replicate number 2): 0.96
- Growth Rate ([2]; 0 h, replicate number 1): 0.71
- Growth Rate ([2]; 6 h, replicate number 1): 0.25
- Growth Rate ([2]; 18 h, replicate number 1): 0.95
- Growth Rate ([2]; 24 h, replicate number 1): 0.92

SMILES: C[C@@H](COCCC(=O)N1CCN(c2ncc(C(F)(F)F)cn2)CC1)Nc1cn[nH]c(=O)c1C(F)(F)F [ATAMPARIB]
- Growth Rate ([1]; 6 h, replicate number 1): 0.88
- Growth Rate ([1]; 6 h, replicate number 2): 0.74
- Growth Rate ([1]; 12 h, replicate number 1): 0.3
- Growth Rate ([1]; 12 h, replicate number 2): 0.15
- Growth Rate ([1]; 18 h, replicate number 1): 0.22
- Growth Rate ([1]; 18 h, replicate number 2): 0.13
- Growth Rate ([1]; 24 h, replicate number 1): 0.39
- Growth Rate ([1]; 24 h, replicate number 2): 0.15
- Growth Rate ([2]; 0 h, replicate number 1): 0.95
- Growth Rate ([2]; 0 h, replicate number 2): 0.81
- Growth Rate ([2]; 6 h, replicate number 2): 0.59
- Growth Rate ([2]; 12 h, replicate number 2): 0.8
- Growth Rate ([2]; 18 h, replicate number 2): 0.9
- Growth Rate ([2]; 24 h, replicate number 2): 0.75

SMILES: N=C(N)Nc1cc(C2CCNCC2)cc(C(F)(F)F)c1.O=C(O)C(F)(F)F.O=C(O)C(F)(F)F
- Growth Rate ([1]; 0 h, replicate number 2): -1
- Growth Rate ([1]; 24 h, replicate number 1): 0.99
- Growth Rate ([2]; 0 h, replicate number 1): 0.85
- Growth Rate ([2]; 0 h, replicate number 2): -0.14
- Growth Rate ([2]; 6 h, replicate number 1): 0.69
- Growth Rate ([2]; 12 h, replicate number 1): 0.91
- Growth Rate ([2]; 18 h, replicate number 1): 0.98
- Growth Rate ([2]; 24 h, replicate number 1): 0.96

SMILES: CN[C@@H](C)C(=O)N[C@H](C(=O)N1CCC[C@H]1C(=O)Nc1sc(-c2ncco2)nc1-c1ccccc1)C1CCCCC1 [GDC-0917]
- Growth Rate ([1]; 0 h, replicate number 1): -1
- Growth Rate ([1]; 6 h, replicate number 2): 0.6
- Growth Rate ([2]; 0 h, replicate number 1): 0.71
- Growth Rate ([2]; 6 h, replicate number 1): 0.6
- Growth Rate ([2]; 6 h, replicate number 2): 0.98
- Growth Rate ([2]; 12 h, replicate number 1): 0.93
- Growth Rate ([2]; 18 h, replicate number 1): 0.86
- Growth Rate ([2]; 24 h, replicate number 1): 0.92
- Growth Rate ([2]; 24 h, replicate number 2): 0.99

SMILES: c1ccc(C(OC2CCN(CCCc3nnn[nH]3)CC2)c2ccccc2)cc1
- Growth Rate ([1]; 6 h, replicate number 2): -0.26
- Growth Rate ([1]; 18 h, replicate number 2): 0.75
- Growth Rate ([2]; 6 h, replicate number 1): 0.35
- Growth Rate ([2]; 6 h, replicate number 2): 0.46
- Growth Rate ([2]; 12 h, replicate number 1): 0.7
- Growth Rate ([2]; 12 h, replicate number 2): 0.67
- Growth Rate ([2]; 18 h, replicate number 1): 0.57
- Growth Rate ([2]; 18 h, replicate number 2): 0.85
- Growth Rate ([2]; 24 h, replicate number 1): 0.65
- Growth Rate ([2]; 24 h, replicate number 2): 0.75

SMILES: CNc1ncc2cc(-c3ccc(-c4ncccc4F)cc3Cl)c(=O)n(C[C@H]3OC[C@H](N)CO3)c2n1
- Growth Rate ([1]; 6 h, replicate number 1): 0.02
- Growth Rate ([1]; 6 h, replicate number 2): -0.26
- Growth Rate ([1]; 12 h, replicate number 1): 0.37
- Growth Rate ([1]; 12 h, replicate number 2): -0.06
- Growth Rate ([1]; 18 h, replicate number 1): 0.78
- Growth Rate ([1]; 18 h, replicate number 2): 0.35
- Growth Rate ([1]; 24 h, replicate number 1): 0.8
- Growth Rate ([1]; 24 h, replicate number 2): 0.66
- Growth Rate ([2]; 0 h, replicate number 1): -0.97

SMILES: COc1cc(C(=O)NCCOCCOCCOCCC(=O)Nc2cccc3c2C(=O)N(C2CCC(=O)NC2=O)C3=O)ccc1Nc1ncc(C(F)(F)F)c(Oc2cccc3c2C(=O)CC3)n1 (stereo not given)
- Growth Rate ([1]; 0 h, replicate number 2): 0.45
- Growth Rate ([1]; 12 h, replicate number 2): 0.65
- Growth Rate ([2]; 0 h, replicate number 1): -0.87
- Growth Rate ([2]; 0 h, replicate number 2): -0.99
- Growth Rate ([2]; 6 h, replicate number 1): 0.89
- Growth Rate ([2]; 12 h, replicate number 1): 0.57
- Growth Rate ([2]; 18 h, replicate number 1): 0.71
- Growth Rate ([2]; 18 h, replicate number 2): 0.69
- Growth Rate ([2]; 24 h, replicate number 1): 0.61
- Growth Rate ([2]; 24 h, replicate number 2): 0.74

SMILES: COc1cc(C)c(S(=O)(=O)N(C)CCC(=O)N[C@H]2CC[C@@H](N3CCC4CN(C)CC4C3)CC2)c(C)c1.Cl.Cl (stereo not given in full)
- Growth Rate ([1]; 0 h, replicate number 2): -0.7
- Growth Rate ([1]; 6 h, replicate number 1): 0.39
- Growth Rate ([3]; 6 h, replicate number 1): 0.78
- Growth Rate ([3]; 6 h, replicate number 2): 0.87
- Growth Rate ([3]; 12 h, replicate number 1): 0.97
- Growth Rate ([3]; 12 h, replicate number 2): 0.88
- Growth Rate ([3]; 18 h, replicate number 2): 0.99
